From the supplement of paper PMC13380429

Assays:
[1] = system: A549-ACE2 infected with SARS-CoV-2; assay: cell count relative to DMSO; higher = less toxic; settings: 24 h
[2] = system: Caco-2; assay: cell viability relative to DMSO; higher = less toxic; settings: 72 h
[3] = system: Calu-3; assay: as above; settings: 72 h
[4] = system: HepG2; assay: as above; settings: 72 h
[5] = system: U2OS; assay: as above; settings: 72 h
[6] = system: Vero E6; assay: as above; settings: 72 h
[7] = system: A549-ACE2 infected with SARS-CoV-2; assay: SARS-CoV-2 infection rate relative to DMSO; higher = more infection; settings: 24 h
[8] = system: A549-ACE2; assay: phospholipidosis EC50; higher = less potent phospholipidosis inducer; settings: 48 h
[9] = system: A549-ACE2; assay: drug-induced phospholipidosis relative to tamoxifen; higher = more phospholipidosis
[10] = system: A549-ACE2 infected with SARS-CoV-2; assay: morphology score (similarity to uninfected cells); higher = more like uninfected cells; settings: 24 h
[11] = system: Caco-2; assay: relative viability EC50 (midpoint between 100% and the lowest measured viability); higher = less toxic; settings: 72 h
[12] = system: Calu-3; assay: as above; settings: 72 h
[13] = system: HepG2; assay: as above; settings: 72 h
[14] = system: U2OS; assay: as above; settings: 72 h
[15] = system: Caco-2; assay: drug sensitivity score (DSS) for viability; higher = more toxic; extreme values may be limits of the assay; settings: 72 h
[16] = system: Calu-3; assay: as above; settings: 72 h
[17] = system: HepG2; assay: as above; settings: 72 h
[18] = system: U2OS; assay: as above; settings: 72 h
[19] = system: Vero E6; assay: as above; settings: 72 h

O=C(CCCN1CCC2(CC1)C(=O)N(Cc1cccc(F)c1)CN2c1ccccc1)c1ccc(F)cc1 [3'-fluorobenzylspiperone]
Settings | SARS-CoV-2 infection rate, [7] [%] | cell count, [1] [%] | cell viability, [2] [%] | cell viability, [3] [%] | cell viability, [4] [%] | cell viability, [5] [%] | cell viability, [6] [%] | morphology score, [10]
1 nM | – | – | 90.9 | 101 | 94.6 | 96.5 | 103 | –
10 nM | – | – | 91.1 | 106 | 98.1 | 102 | 97.2 | –
0.1 µM | 99 | 97 | – | – | – | – | – | -0.13
100 nM | – | – | 100 | 90.6 | 95.9 | 98.7 | 93 | –
0.3 µM | 90 | 102 | – | – | – | – | – | 0.27
1 µM | 87 | 109 | – | – | – | – | – | 0.46
1000 nM | – | – | 101 | 101 | 103 | 99.8 | 95.1 | –
3 µM | 17 | 107 | – | – | – | – | – | 0.54
10000 nM | – | – | 27.9 | 29.7 | 44.4 | 26.4 | 62.9 | –

Settings | drug sensitivity score | phospholipidosis EC50 [µM] | relative viability EC50 [µM]
[8] | – | 2.95 | –
[11] | – | – | 3.28
[12] | – | – | 3.25
[13] | – | – | 3.46
[14] | – | – | 3.15
[15] | 3.9 | – | –
[16] | 3.8 | – | –
[17] | 2.7 | – | –
[18] | 4.1 | – | –
[19] | 2.6 | – | –

drug-induced phospholipidosis [%], [9]
Settings | 0.3 µM | 0.833333 µM | 3.33333 µM | 6.66667 µM | 10 µM | 30 µM
24 h | 3.51 | -1.7 | 29 | 48.2 | -29.1 | -34.9
48 h | 4.33 | 1.23 | 42.2 | 60 | – | –
72 h | 4.04 | 1.05 | 39.3 | 48.1 | – | –

COc1ccc(-c2cc3nccn3c(Nc3ncccc3C(N)=O)n2)cc1OC [BAY-61-3606]
Settings | SARS-CoV-2 infection rate, [7] [%] | cell count, [1] [%] | cell viability, [2] [%] | cell viability, [3] [%] | cell viability, [4] [%] | cell viability, [5] [%] | cell viability, [6] [%] | morphology score, [10]
1 nM | – | – | 104 | 108 | 96.1 | 103 | 97.4 | –
10 nM | – | – | 89.8 | 99.1 | 99.7 | 97.4 | 99 | –
0.1 µM | 94 | 99 | – | – | – | – | – | 0.21
100 nM | – | – | 95.8 | 96 | 102 | 101 | 93.9 | –
0.3 µM | 101 | 99 | – | – | – | – | – | 0.16
1 µM | 107 | 95 | – | – | – | – | – | 0.02
1000 nM | – | – | 80.8 | 130 | 87.5 | 94.1 | 99.6 | –
3 µM | 82 | 59 | – | – | – | – | – | 0.48
10000 nM | – | – | 46.1 | 109 | 5 | 53.3 | 70.9 | –

drug-induced phospholipidosis [%], [9]
Settings | 0.3 µM | 0.833333 µM | 3.33333 µM
24 h | -2.52 | -2.28 | 22.8
48 h | 0.47 | -0.01 | –
72 h | 0.971 | -0.217 | –

Settings | drug sensitivity score | relative viability EC50 [µM]
[11] | – | 1.36
[12] | – | > 10
[13] | – | 2.1
[15] | 5.2 | –
[16] | 0 | –
[17] | 7.4 | –
[18] | 3.4 | –
[19] | 1.3 | –
